Reference: ChEMBL document CHEMBL1201862, “PubChem BioAssay data set” (2004)
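In this assay, cells in 96-well plates receive the compound at five concentrations for 48 hours. Endpoints are linearly interpolated between the surrounding concentrations. GI50 is the concentration that inhibits growth by half.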 Calls of active or inactive are those of the source. Rule as the data show it: active = GI50 up to about 1.1 µM and inactive = higher. Bridge positions count the residues as written; N and C are the ends. Peptide text beside a SMILES is read from it. * marks the point of attachment. Cbz = O=C(OCc1ccccc1)*

What was measured:
Experiment in all cases: NCI-60 cell line screen, 48 h
OVCAR-8 = test system: OVCAR-8
SK-MEL-28 = test system: SK-MEL-28
RPMI-8226 = test system: RPMI-8226
SNB-19 = test system: SNB-19
SR = test system: SR
IGROV-1 = test system: IGROV-1
LOX IMVI = test system: LOX IMVI
SN12C = test system: SN12C
Malme-3M = test system: Malme-3M
COLO 205 = test system: COLO 205
PC-3 = test system: PC-3
SF-295 = test system: SF-295
NCI/ADR-RES = test system: NCI/ADR-RES
HOP-92 = test system: HOP-92
K562 = test system: K562
OVCAR-5 = test system: OVCAR-5
A498 = test system: A498
EKVX = test system: EKVX
OVCAR-3 = test system: OVCAR-3
BT-549 = test system: BT-549

| SMILES | GI50 (OVCAR-8) | GI50 (SK-MEL-28) | GI50 (RPMI-8226) | GI50 (SNB-19) | GI50 (SR) | GI50 (IGROV-1) | GI50 (LOX IMVI) | GI50 (SN12C) | GI50 (Malme-3M) | GI50 (COLO 205) | GI50 (PC-3) | GI50 (SF-295) | GI50 (NCI/ADR-RES) | GI50 (HOP-92) | GI50 (K562) | GI50 (OVCAR-5) | GI50 (A498) | GI50 (EKVX) | GI50 (OVCAR-3) | GI50 (BT-549) |
| --- | --- | --- | --- | --- | --- | --- | --- | --- | --- | --- | --- | --- | --- | --- | --- | --- | --- | --- | --- | --- |
| CCN(CCCl)c1cccc(NC(=O)c2ccc(C(=O)Nc3cccc(CN(C)C)c3)cc2)c1 | 0.183 µM (active) | 0.165 µM (active) | 0.267 µM (active) | 0.0497 µM (active) | 0.037 µM (active) | 0.0344 µM (active) | 0.0277 µM (active) | 0.335 µM (active) | 0.049 µM (active) | 0.11 µM (active) | 0.044 µM (active) | 0.125 µM (active) | 2.76 µM (inactive) | 0.144 µM (active) | 0.0422 µM (active) | 1.48 µM (inactive) | 0.136 µM (active) |  |  |  |
| Cn1sc2ccccc2c1=S | 9.71 µM (inactive) | 8.11 µM (inactive) | 6.73 µM (inactive) | 12.2 µM (inactive) | 14 µM (inactive) | 13 µM (inactive) | 1.78 µM (inactive) | 6.75 µM (inactive) | 9.82 µM (inactive) | 13.3 µM (inactive) |  | 12.6 µM (inactive) | 3.21 µM (inactive) | 16.6 µM (inactive) | 3.71 µM (inactive) | 20 µM (inactive) | 48.5 µM (inactive) | 8.69 µM (inactive) | 4.2 µM (inactive) |  |
| O=C1CC(c2cccc(Br)c2)n2cccc21 (centres undefined) | > 100 µM (inactive) | > 100 µM (inactive) | > 100 µM (inactive) | > 100 µM (inactive) | 51.2 µM (inactive) | 57.3 µM (inactive) | > 100 µM (inactive) | > 100 µM (inactive) |  | > 100 µM (inactive) | 39.5 µM (inactive) | > 100 µM (inactive) | > 100 µM (inactive) | 81.3 µM (inactive) | 72.3 µM (inactive) | > 100 µM (inactive) | > 100 µM (inactive) | > 100 µM (inactive) | > 100 µM (inactive) |  |
| CCOC(=O)c1c(-c2ccc(O)c(OC)c2)c(C#N)c(=S)n(C2OC(CO)C(O)C(O)C2O)c1-c1ccccc1 (centres undefined) | > 100 µM (inactive) | > 100 µM (inactive) | 72.3 µM (inactive) | > 100 µM (inactive) | > 100 µM (inactive) | > 100 µM (inactive) | > 100 µM (inactive) | > 100 µM (inactive) |  | > 100 µM (inactive) | > 100 µM (inactive) | > 100 µM (inactive) | > 100 µM (inactive) | 66.7 µM (inactive) | > 100 µM (inactive) | > 100 µM (inactive) | > 100 µM (inactive) | > 100 µM (inactive) | > 100 µM (inactive) |  |
| O=C(O)c1ccccc1/C=C1/Nc2ccccc2C1=O | > 100 µM (inactive) | > 100 µM (inactive) | > 100 µM (inactive) | > 100 µM (inactive) | 66.5 µM (inactive) | 24.2 µM (inactive) | 75.9 µM (inactive) | > 100 µM (inactive) | > 100 µM (inactive) | > 100 µM (inactive) | > 100 µM (inactive) | > 100 µM (inactive) | > 100 µM (inactive) | > 100 µM (inactive) | > 100 µM (inactive) | > 100 µM (inactive) | > 100 µM (inactive) | 60 µM (inactive) | > 100 µM (inactive) |  |
| CN(C)C(=O)c1nnsc1NN=O | > 100 µM (inactive) | > 100 µM (inactive) | > 100 µM (inactive) | > 100 µM (inactive) | > 100 µM (inactive) | > 100 µM (inactive) | > 100 µM (inactive) | > 100 µM (inactive) | > 100 µM (inactive) | > 100 µM (inactive) | > 100 µM (inactive) | > 100 µM (inactive) | > 100 µM (inactive) | > 100 µM (inactive) | > 100 µM (inactive) | > 100 µM (inactive) |  | > 100 µM (inactive) | 87.7 µM (inactive) |  |
| CC(=O)c1c2c(cc3c1CC1(C3)Cc3cc4c(c(C(C)=O)c3C1)CCCC4)CCCC2 | > 100 µM (inactive) |  | 21.3 µM (inactive) |  | 16.3 µM (inactive) | > 100 µM (inactive) | > 100 µM (inactive) | > 100 µM (inactive) | > 100 µM (inactive) | > 100 µM (inactive) | 21.4 µM (inactive) | > 100 µM (inactive) | > 100 µM (inactive) | 81.8 µM (inactive) | 20.1 µM (inactive) | > 100 µM (inactive) | > 100 µM (inactive) | > 100 µM (inactive) | 41.6 µM (inactive) |  |
| O=C1CCC2(CC1CC(Sc1ccccc1)Sc1ccccc1)OCCO2 (centres undefined) | 42.5 µM (inactive) | 85.9 µM (inactive) | 30 µM (inactive) | 74.1 µM (inactive) | 26.4 µM (inactive) | 74.3 µM (inactive) | 37.4 µM (inactive) |  | 29.6 µM (inactive) | 25.2 µM (inactive) | 25.2 µM (inactive) | 52.6 µM (inactive) | 33.4 µM (inactive) | 28 µM (inactive) | 31.9 µM (inactive) | 72.4 µM (inactive) | 74.3 µM (inactive) | 61.8 µM (inactive) | 30.6 µM (inactive) |  |
| O=c1[nH]c(=O)n(C2OC(CO)C(O)C2O)cc1/N=N/NCc1ccccc1 (centres undefined) | > 100 µM (inactive) | > 100 µM (inactive) | > 59.6 µM (inactive) | > 100 µM (inactive) | > 63.2 µM (inactive) | > 100 µM (inactive) | > 63.8 µM (inactive) | > 100 µM (inactive) | > 100 µM (inactive) | > 69.2 µM (inactive) |  | > 100 µM (inactive) |  | > 100 µM (inactive) | > 71.9 µM (inactive) | > 100 µM (inactive) | > 100 µM (inactive) | > 100 µM (inactive) | > 100 µM (inactive) |  |
| CC1(C)N=C(/C(Cl)=[N+](/[O-])C(=O)c2ccc(F)cc2)C(C)(C)N1O | 17.5 µM (inactive) | 15.8 µM (inactive) | 14.2 µM (inactive) | > 100 µM (inactive) | 4.16 µM (inactive) | 19.5 µM (inactive) | 11.7 µM (inactive) | 15.8 µM (inactive) | 16.3 µM (inactive) | 18.5 µM (inactive) | 17.5 µM (inactive) | 31.8 µM (inactive) | 36.6 µM (inactive) | 24.5 µM (inactive) | 2.53 µM (inactive) | 18 µM (inactive) |  | 20.1 µM (inactive) | 17 µM (inactive) |  |
| CC(=O)OCC1OC(n2c(C)c(C)c(C)c(C#N)c2=S)C(OC(C)=O)C(OC(C)=O)C1OC(C)=O (centres undefined) | > 100 µM (inactive) | > 100 µM (inactive) |  | 33.7 µM (inactive) | > 100 µM (inactive) | > 100 µM (inactive) | > 100 µM (inactive) | > 100 µM (inactive) | > 100 µM (inactive) | > 100 µM (inactive) | > 100 µM (inactive) | 14.8 µM (inactive) | > 100 µM (inactive) | 34.1 µM (inactive) | > 100 µM (inactive) | > 100 µM (inactive) | > 100 µM (inactive) | 26.2 µM (inactive) | > 100 µM (inactive) |  |
| Clc1cccc(-c2sc(-c3ccsc3)cc2Cc2ccsc2)c1 | > 10 µM (inactive) | > 10 µM (inactive) | > 10 µM (inactive) |  | > 10 µM (inactive) | > 10 µM (inactive) | > 10 µM (inactive) | > 10 µM (inactive) | > 10 µM (inactive) | > 10 µM (inactive) | > 10 µM (inactive) | > 10 µM (inactive) |  | > 10 µM (inactive) | > 10 µM (inactive) |  |  | > 10 µM (inactive) |  |  |
| O=[N+]([O-])c1ncc(N(CCO)CCO)s1 | 53.5 µM (inactive) | 16.4 µM (inactive) | 19.5 µM (inactive) | > 100 µM (inactive) | 43.8 µM (inactive) |  | 15.6 µM (inactive) | 41.4 µM (inactive) | 18.2 µM (inactive) | 21.9 µM (inactive) | 41.3 µM (inactive) | > 100 µM (inactive) |  |  | 20.8 µM (inactive) | 78.5 µM (inactive) | 65.5 µM (inactive) | > 100 µM (inactive) | 65.6 µM (inactive) | 26.5 µM (inactive) |
| CCN(CC)CCCC(C)Nc1c2cc(OC)cc(C)c2nc2c(C)c(Cl)ccc12 (centres undefined) | 1.78 µM (inactive) | 1.95 µM (inactive) | 2.62 µM (inactive) | 1.68 µM (inactive) | 2.01 µM (inactive) | 1.67 µM (inactive) | 2.02 µM (inactive) | 1.57 µM (inactive) | 1.85 µM (inactive) | 1.64 µM (inactive) |  | 2.22 µM (inactive) |  | 1.22 µM (inactive) | 1.83 µM (inactive) | 2.1 µM (inactive) | 2.43 µM (inactive) | 1.85 µM (inactive) | 1.79 µM (inactive) |  |
| CNC(=O)C1CCCCNC(=O)CCC(NC(=O)OCc2ccccc2)C(=O)N1 (stereo not drawn) (Cbz-Glu-Lys-NHMe; lactam 1-2; configuration not given here) | > 100 µM (inactive) | > 100 µM (inactive) | > 100 µM (inactive) | > 100 µM (inactive) |  | > 100 µM (inactive) | > 100 µM (inactive) | > 100 µM (inactive) | > 100 µM (inactive) | > 100 µM (inactive) | > 100 µM (inactive) | > 100 µM (inactive) | > 100 µM (inactive) | > 100 µM (inactive) | > 100 µM (inactive) | > 100 µM (inactive) | 39.5 µM (inactive) | > 100 µM (inactive) | > 100 µM (inactive) |  |
| CC(C)[C@]12O[C@H]1[C@@H]1O[C@]13[C@]1(O[C@H]1C[C@H]1C4=C(CC[C@@]13C)C(=O)OC4)[C@@H]2O [TRIPTOLIDE] | 0.0203 µM (active) | 0.00637 µM (active) |  | 0.104 µM (active) | 0.0173 µM (active) | 0.00713 µM (active) | 0.00514 µM (active) | 0.00861 µM (active) | 0.0112 µM (active) | 0.00776 µM (active) | 0.0181 µM (active) | 0.0279 µM (active) | 0.0261 µM (active) | 0.023 µM (active) | 0.017 µM (active) |  | 0.018 µM (active) | 0.021 µM (active) | 0.00586 µM (active) |  |
